According to PMC6305410, “High-Throughput Screening for Bacterial Glycosyltransferase Inhibitors” (Frontiers in Cellular and Infection Microbiology, 2018):

Biological target: T1, NleB1 (Escherichia coli, UniProt Q8XBX8)
T1 construct: GST-EHEC-NleB1 in pET42a (GST/His tagged), expressed in E. coli BL21 (DE3), nickel purified; some tag cleavage noted
Details: inhibitor; for % NleB1 inhibition (µM compound) / 10: 10 µM; for % NleB1 inhibition (µM compound) / 20: 20 µM; for % NleB1 inhibition (µM compound) / 40: 40 µM; for % NleB1 inhibition (µM compound) / 80: 80 µM; for % NleB1 inhibition (µM compound) / 160: 160 µM

SMILES | % NleB1 inhibition (µM compound) / 10 | % NleB1 inhibition (µM compound) / 20 | % NleB1 inhibition (µM compound) / 40 | % NleB1 inhibition (µM compound) / 80 | % NleB1 inhibition (µM compound) / 160
O=c1cc(-c2ccccc2Cl)oc2c(NS(=O)(=O)c3cc(Cl)cc(Cl)c3O)ccc(O)c12 [KUC100066N] | 43.0% | 71.1% | 84.8% | 96.0% | 96.8%
Cc1cccc(C(=O)N2CCC(=O)N([C@H](COCc3ccc(Cl)cc3)Cc3ccccc3)CC2)c1 [KUC100143N] | 35.9% | 38.0% | 39.2% | 42.0% | 63.3%
O=C1CCN(S(=O)(=O)c2ccccc2)CCN1CCOCc1ccc(Cl)cc1 [KUC100988N] | 31.9% | 14.5% | 26.3% | 28.3% | 36.0%
O=C1CN(Cc2ccccc2)S(=O)(=O)c2ccccc21 [KUC101184N] | 2.9% | 18.5% | 23.8% | 33.3% | 44.7%
COc1ccc(C2CC(O)(c3ccccc3)Oc3c(C)ccc(C)c32)cc1 (centres unmarked) [KUC101437N] | 10.8% | 13.9% | 23.3% | 39.1% | 57.3%
COc1ccc(C(CCN2CCOCC2)c2c(OC)cc(OC)c3c2OC(=O)CC3c2ccc(OC)cc2)cc1 (centres unmarked) [KUC101459N] | 14.9% | 26.2% | 9.4% | 18.8% | 44.1%
CCCCCCC(=O)N1C/C=C\C(c2ccc(OC)cc2)N(Cc2ccc(F)cc2)C(=O)[C@@H]1Cc1ccccc1 (some centres unmarked) [KUC101608N] | 15.6% | 17.3% | 23.2% | 30.3% | 32.5%
CCCCCCCCN1[C@@H](CC(=O)OC)c2cc(F)ccc2S1(=O)=O [KUC101907N] | 23.0% | 22.1% | 22.4% | 29.9% | 42.2%
CCCCCCCCCCCCN1[C@@H](CC(=O)O)c2cc(C(F)(F)F)ccc2S1(=O)=O [KUC101994N] | 40.6% | 48.0% | 60.1% | 80.4% | 94.3%
COc1cccc(N2[C@@H](CC(=O)O)c3ccc(/C=C/C(=O)O)cc3S2(=O)=O)c1 [KUC102262N] | 27.6% | 34.2% | 35.9% | 41.7% | 46.5%
CCCCCCCCN1[C@@H](CC(=O)OC)c2ccc(/C=C/C(=O)OC)cc2S1(=O)=O [KUC102268N] | 25.3% | 20.8% | 27.1% | 33.3% | 27.9%
CC(C)CN1CCC(=O)N(CCC#N)CC1 [KUC102485N] | 16.0% | 23.1% | 17.6% | 19.0% | 20.8%
O=C(O)c1cc(-c2ccc(-c3c(-c4ccco4)noc3-c3ccccc3)cc2)nc2ccccc12 [KUC102644N] | 50.1% | 58.4% | 75.0% | 89.4% | 97.2%
O=S1(=O)CCOC[C@H](c2ccccc2)N1Cc1ccc(Cl)c(Cl)c1 [KUC102739N] | 16.3% | 16.2% | 25.3% | 35.0% | 45.5%
O=C(NC1CCC(=O)N(CCSc2ccccc2)CC1)OCc1ccccc1 (centres unmarked) [KUC102830N] | 16.9% | 20.9% | 21.9% | 25.7% | 38.2%
O=C1CCC[C@@H]2Cc3nc4ccc(O)cc4cc3[C@@H]3CCN1[C@H]23 [KUC103038N] | 26.7% | 35.2% | 34.4% | 47.9% | 76.1%
C=CCN1CC[C@@H](O)C(=C)S1(=O)=O [KUC103094N] | 19.8% | 23.8% | 19.2% | 18.2% | 18.0%
C[C@@H]1NC(=O)O[C@H]1c1ccco1 [KUC103195N] | 23.8% | 25.6% | 28.1% | 33.5% | 23.9%
O=C1CS(=O)(=O)N(Cc2cccc(F)c2)c2ccc(Br)cc21 [KUC103319N] | 32.5% | 37.2% | 49.0% | 68.8% | 81.7%
C[C@@H](NS(=O)(=O)c1cc(Cl)ccc1F)[C@H](O)c1ccccc1 [KUC103993N] | 27.5% | 31.8% | 31.8% | 34.5% | 37.0%
COc1cc(C(C)=O)ccc1OCc1cn(CC(=O)c2ccc(O)cc2)nn1 [KUC104076N] | 32.0% | 44.9% | 45.1% | 61.1% | 75.5%
O=C(Cn1cc(COc2ccccc2C(F)(F)F)nn1)c1ccc(O)cc1 [KUC104085N] | 36.1% |  | 51.8% | 63.6% | 78.4%
O=C(Cn1cc(COc2cccc([N+](=O)[O-])c2)nn1)c1ccc(O)cc1 [KUC104086N] | 24.5% | 24.5% | 34.2% | 32.8% | 50.5%
CC(=O)c1ccc(OCc2cn(CC(=O)c3ccc(O)cc3)nn2)c(F)c1 [KUC104088N] | 45.4% | 47.7% | 59.8% | 76.5% | 92.0%
